Results published in paper PMC8838415, “Discovery of Novel Pleuromutilin Derivatives as Potent Antibacterial Agents for the Treatment of MRSA Infection” (Molecules, 2022).
Values after ≈ are worked out from the molar mass of the structure shown.

Tests used:
[1] = test system: methicillin-resistant S. aureus (ATCC 43300); assay: MIC and MBC, broth dilution, MRSA ATCC 43300; type: cell-based; settings: Staphylococcus aureus
Outline: (§1)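 Compounds, in 2.5% tween-80/2.5% DMSO, serially diluted in MH broth over 32–0.01 µg/mL with 5 × 10^5 CFU/mL inoculum, triplicates, 22–26 h at 37 °C; MIC = lowest concentration with no visible growth. MBC from plating non-turbid wells on MH agar, further 22–26 h at 37 °C.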

S. aureus (ATCC 29213) = assay: MIC and MBC, broth dilution, S. aureus ATCC 29213; type: cell-based; settings: Staphylococcus aureus, ATCC29213
Outline: as §1

MRSA ATCC 43300 [2] = assay: Constant concentration time-kill curves; type: cell-based, Staphylococcus aureus; settings: 2× MIC, in 9 h
Procedure: The time-kill curve experiments of compound 8 and compound 9 were performed according to a previous report in triplicate. The logarithmic phase of MRSA 43300 was diluted to about 10^6 CFU/mL with MH broth. […] All samples were shaken at 37 °C. Samples (100 μL) were taken at 0, 3, 6, 9 and 24 h from the mixtures. Each sample was diluted decuple continuously with sterile saline. Then, 20 μL of the diluted sample was plated on the sterile MH agar plate and incubated for 22–26 h at 37 °C. The total bacteria on the plates were counted as CFU/mL to calculate the bacterial colonies. The time-kill curve was constructed by scheming log10 CFU/mL of bacteria counts versus time.

S. aureus (144) = assay: MIC and MBC, broth dilution, S. aureus 144; type: cell-based; settings: Staphylococcus aureus; S. aureus 144 (clinical strain)
Outline: as §1

S. aureus (AD3) = assay: MIC and MBC, broth dilution, S. aureus AD3; type: cell-based; settings: Staphylococcus aureus; S. aureus AD3 (clinical strain)
Outline: as §1

50S ribosome = assay: SPR interaction and affinity analysis; type: binding, S. aureus ATCC 43300; settings: 4 °C
Outline: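 50S subunit purified from S. aureus ATCC 43300 by sucrose cushion/gradient; compounds (100 μM in DMSO) photo-cross-linked on sensor chip. Ribosome flowed at 200–3200 nM in PBST pH 7.4, 4 °C, 600 s association, 360 s dissociation. KD = Kd/Ka from 1:1 Langmuir fit with mass transfer.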

MRSA ATCC 43300 [3] = assay: Post antibiotic effect (PAE)
Procedure: By diluting with the preheated MH broth 1000 times, the compound was removed from the sample. […] The samples were diluted decuple with sterile saline and plated onto the preheated MH agar plates. […] The PAE value was calculated by the equation (PAE = TA – TC) and presented after an hour.

## C=C[C@]1(C)C[C@@H](OC(=O)CNc2ccc(F)cc2)[C@]2(C)[C@H](C)CC[C@]3(CCC(=O)[C@H]32)[C@@H](C)[C@@H]1O [Compound 9, 22-(4-Fluoroanilineyl)-22-deoxypleuromutilin]
[1]
  MBC: 0.25 µg/mL (≈ 0.53 µM)
  MIC: 0.06 µg/mL (≈ 0.127 µM)
S. aureus (ATCC 29213)
  MBC: 0.5 µg/mL (≈ 1.06 µM)
  MIC: 0.25 µg/mL (≈ 0.53 µM)
MRSA ATCC 43300 [2]
  MRSA killed (time-kill): 99.9%
S. aureus (144)
  MBC: 1 µg/mL (≈ 2.12 µM)
  MIC: 0.5 µg/mL (≈ 1.06 µM)
S. aureus (AD3)
  MBC: 0.5 µg/mL (≈ 1.06 µM)
  MIC: 0.12 µg/mL (≈ 0.254 µM)
other
  melting point: 91 to 93 °C
50S ribosome; 1:1 Langmuir binding
  Avg ka: 417 M⁻¹ s⁻¹
  Avg kd: 7.39e-06 s⁻¹
50S ribosome; KD = Kd/Ka
  Kd: 17.7 nM
MRSA ATCC 43300 [3]; exposure to 2× MIC for 2 h
  PAE: 1.54 h
MRSA ATCC 43300 [3]; exposure to 4× MIC for 2 h
  PAE: 1.71 h
